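Each compound was tested at five concentrations against cells in 96-well plates for 48 hours. Abbreviation: GI50, concentration required for 50% inhibition of growth.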 Calls of active or inactive are those of the source. Rule as the data show it: active = GI50 up to about 1.1 µM and inactive = higher.
Key:
Experiment in all cases: DTP human tumour cell line panel, 48 h
DMS-273 = tested on: DMS-273
NCI-H460 = tested on: NCI-H460
CAKI-1 = tested on: CAKI-1
SN12C = tested on: SN12C
ACHN = tested on: ACHN
UACC-257 = tested on: UACC-257
SNB-75 = tested on: SNB-75
SF-268 = tested on: SF-268
M14 = tested on: M14
A498 = tested on: A498
OVCAR-4 = tested on: OVCAR-4
SK-MEL-5 = tested on: SK-MEL-5
KM-20L2 = tested on: KM-20L2
Malme-3M = tested on: Malme-3M
COLO 205 = tested on: COLO 205
OVCAR-8 = tested on: OVCAR-8
786-0 = tested on: 786-0
IGROV-1 = tested on: IGROV-1
SK-MEL-2 = tested on: SK-MEL-2
HCT-15 = tested on: HCT-15
OVCAR-3 = tested on: OVCAR-3
DMS-114 = tested on: DMS-114
SK-MEL-28 = tested on: SK-MEL-28
SR = tested on: SR
HOP-62 = tested on: HOP-62
K562 = tested on: K562
A549 = tested on: A549
HCT-116 = tested on: HCT-116
UACC-62 = tested on: UACC-62
U-251 = tested on: U-251
LXFL 529 = tested on: LXFL 529
M19-MEL = tested on: M19-MEL
RXF 393 = tested on: RXF 393
HL-60 = tested on: HL-60
UO-31 = tested on: UO-31
SNB-78 = tested on: SNB-78
HCC 2998 = tested on: HCC 2998
SK-OV-3 = tested on: SK-OV-3
KM12 = tested on: KM12
CCRF-CEM = tested on: CCRF-CEM
NCI-H226 = tested on: NCI-H226
MOLT-4 = tested on: MOLT-4
SNB-19 = tested on: SNB-19
NCI-H522 = tested on: NCI-H522
SW-620 = tested on: SW-620
SF-539 = tested on: SF-539
RPMI-8226 = tested on: RPMI-8226
DLD-1 = tested on: DLD-1
HOP-18 = tested on: HOP-18
TK-10 = tested on: TK-10
XF498 = tested on: XF498
HOP-92 = tested on: HOP-92
HT-29 = tested on: HT-29
OVCAR-5 = tested on: OVCAR-5
LOX IMVI = tested on: LOX IMVI
NCI-H23 = tested on: NCI-H23

## CC(=O)O[C@@H]1C2C(=O)OC(=O)C2C2CCC[C@]23O[C@H]13 (stereo partly specified)
DMS-273
  GI50: > 100000 nM (inactive)
NCI-H460
  GI50: > 100000 nM (inactive)
CAKI-1
  GI50: > 100000 nM (inactive)
SN12C
  GI50: > 100000 nM (inactive)
ACHN
  GI50: > 100000 nM (inactive)
UACC-257
  GI50: > 100000 nM (inactive)
SNB-75
  GI50: > 100000 nM (inactive)
SF-268
  GI50: > 100000 nM (inactive)
M14
  GI50: > 100000 nM (inactive)
A498
  GI50: > 100000 nM (inactive)
OVCAR-4
  GI50: > 100000 nM (inactive)
SK-MEL-5
  GI50: > 100000 nM (inactive)
KM-20L2
  GI50: > 100000 nM (inactive)
Malme-3M
  GI50: > 100000 nM (inactive)
COLO 205
  GI50: > 100000 nM (inactive)
OVCAR-8
  GI50: > 100000 nM (inactive)
786-0
  GI50: > 100000 nM (inactive)
IGROV-1
  GI50: > 100000 nM (inactive)
SK-MEL-2
  GI50: > 100000 nM (inactive)
HCT-15
  GI50: > 100000 nM
OVCAR-3
  GI50: > 100000 nM (inactive)
DMS-114
  GI50: > 100000 nM (inactive)
SK-MEL-28
  GI50: > 100000 nM (inactive)
SR
  GI50: > 100000 nM (inactive)
HOP-62
  GI50: > 100000 nM (inactive)
K562
  GI50: > 100000 nM (inactive)
A549
  GI50: > 100000 nM (inactive)
HCT-116
  GI50: > 100000 nM (inactive)
UACC-62
  GI50: > 100000 nM (inactive)
U-251
  GI50: > 100000 nM (inactive)
LXFL 529
  GI50: > 100000 nM (inactive)
M19-MEL
  GI50: > 100000 nM (inactive)
RXF 393
  GI50: > 100000 nM (inactive)
HL-60
  GI50: > 100000 nM (inactive)
UO-31
  GI50: > 100000 nM (inactive)
SNB-78
  GI50: > 100000 nM (inactive)
HCC 2998
  GI50: > 100000 nM (inactive)
SK-OV-3
  GI50: > 100000 nM (inactive)
KM12
  GI50: > 100000 nM (inactive)
CCRF-CEM
  GI50: > 100000 nM (inactive)
NCI-H226
  GI50: > 100000 nM (inactive)
MOLT-4
  GI50: > 100000 nM (inactive)
SNB-19
  GI50: > 100000 nM (inactive)
NCI-H522
  GI50: > 100000 nM (inactive)
SW-620
  GI50: > 100000 nM (inactive)
SF-539
  GI50: > 100000 nM (inactive)
RPMI-8226
  GI50: > 100000 nM (inactive)
DLD-1
  GI50: > 100000 nM (inactive)
HOP-18
  GI50: > 100000 nM (inactive)
TK-10
  GI50: > 100000 nM (inactive)

## COc1cc(C2c3cc4c(cc3[C@@H](NCCN(C)C)C3COC(=O)[C@H]23)OCO4)cc(OC)c1O (stereo partly specified)
M14
  GI50: 229 nM (active)
OVCAR-4
  GI50: 1980 nM (inactive)
SK-MEL-5
  GI50: 86.9 nM (active)
Malme-3M
  GI50: 210 nM (active)
HCT-15
  GI50: 147 nM
OVCAR-3
  GI50: 1050 nM (active)
SK-MEL-28
  GI50: 284 nM (active)
K562
  GI50: 253 nM (active)
U-251
  GI50: 35.9 nM (active)
LXFL 529
  GI50: 1430 nM (inactive)
M19-MEL
  GI50: 575 nM (active)
UO-31
  GI50: 149 nM (active)
XF498
  GI50: 120 nM (active)
HOP-92
  GI50: 23.2 nM (active)
KM12
  GI50: 475 nM (active)
SNB-19
  GI50: 338 nM (active)
SW-620
  GI50: 153 nM (active)
HT-29
  GI50: 536 nM (active)
SF-539
  GI50: 37.5 nM (active)
RPMI-8226
  GI50: 455 nM (active)
DLD-1
  GI50: 1060 nM (active)
TK-10
  GI50: 853 nM (active)

## COc1cc(CNc2ccc(C)cc2)cc(OC)c1OC
DMS-273
  GI50: 92.5 nM (active)
NCI-H460
  GI50: 471 nM (active)
OVCAR-5
  GI50: 1020 nM (active)
UACC-257
  GI50: 7050 nM (inactive)
SNB-75
  GI50: 210 nM (active)
SF-268
  GI50: 615 nM (active)
SK-MEL-5
  GI50: 923 nM (active)
KM-20L2
  GI50: 159 nM (active)
COLO 205
  GI50: 151 nM (active)
OVCAR-8
  GI50: 650 nM (active)
786-0
  GI50: 376 nM (active)
IGROV-1
  GI50: 577 nM (active)
SK-MEL-2
  GI50: 417 nM (active)
LOX IMVI
  GI50: 460 nM (active)
OVCAR-3
  GI50: 179 nM (active)
DMS-114
  GI50: 225 nM (active)
HOP-62
  GI50: 440 nM (active)
K562
  GI50: 148 nM (active)
NCI-H23
  GI50: 277 nM (active)
A549
  GI50: 423 nM (active)
U-251
  GI50: 252 nM (active)
LXFL 529
  GI50: 460 nM (active)
M19-MEL
  GI50: 252 nM (active)
RXF 393
  GI50: 301 nM (active)
HL-60
  GI50: 94.8 nM (active)
UO-31
  GI50: 843 nM (active)
XF498
  GI50: 1290 nM (inactive)
SK-OV-3
  GI50: 251 nM (active)
CCRF-CEM
  GI50: 259 nM (active)
MOLT-4
  GI50: 175 nM (active)
SNB-19
  GI50: 356 nM (active)
SW-620
  GI50: 110 nM (active)
RPMI-8226
  GI50: 500 nM (active)
DLD-1
  GI50: 375 nM (active)

Source: ChEMBL document CHEMBL1201862, “PubChem BioAssay data set” (2004)
